{"source": "patent US20200009125A1", "about": "“Pharmaceutical Compositions For Poorly Water-Soluble Compounds” (ASCENDIA PHARMACEUTICALS, LLC, priority 2013, published 2020)", "key": {"[1]": {"conditions": "cited from earlier work; for aqueous solubility in water: Source: Drugbank"}, "[2]": {"conditions": "cited from earlier work; for pKa: Source: Drugbank or FDA"}}, "data": [{"smiles": "O=C(O)Cc1ccccc1Nc1c(Cl)cccc1Cl", "note": "[Diclofenac, diclofenac]", "values": [{"measurement": "solubility in intestinal fluid of neutral pH", "setting": "[1]; as sodium salt, intestinal fluid of neutral pH", "result": 1113, "unit": "μg/mL"}]}, {"smiles": "COC(=O)[C@H](c1ccccc1Cl)N1CCc2sccc2C1", "note": "[Clopidogrel, clopidogrel]", "values": [{"measurement": "pKa", "setting": "[2]", "result": 4.5}, {"measurement": "solubility", "setting": "physchem; aqueous solution at pH 1.2, pH 1.2, simulated gastric fluid", "result": 5200, "unit": "µg/mL"}, {"measurement": "solubility", "setting": "physchem; aqueous solution at pH 6.8, pH 6.8, aqueous buffer", "result": 14, "unit": "µg/mL"}]}, {"smiles": "CC(C)Cc1ccc(C(C)C(=O)O)cc1", "note": "(centres unmarked) [Ibuprofen, ibuprofen]", "values": [{"measurement": "solubility of ibuprofen alone at pH 1.2", "setting": "[1]; pH 1.2, drug alone, same figure as Drugbank water solubility", "result": 0.021, "unit": "mg/mL"}]}, {"smiles": "CCC(C)n1ncn(-c2ccc(N3CCN(c4ccc(OCC5COC(Cn6cncn6)(c6ccc(Cl)cc6Cl)O5)cc4)CC3)cc2)c1=O", "note": "(centres unmarked) [itraconazole]", "values": [{"measurement": "solubility in gastric fluid", "setting": "[1]; gastric fluid", "result": 3500, "unit": "µg/mL"}, {"measurement": "solubility in intestinal fluid", "setting": "[1]; intestinal fluid", "result": 0.2, "unit": "µg/mL"}]}, {"smiles": "COc1ccc(-n2nc(C(N)=O)c3c2C(=O)N(c2ccc(N4CCCCC4=O)cc2)CC3)cc1", "note": "[Apixaban, apixaban]", "values": [{"measurement": "detectable pKa", "setting": "[2]; within pH range of 0.0-10.0, Source: Drugbank", "result": "no detectable pKa"}, {"measurement": "aqueous solubility in water", "setting": "[1]", "result": "40 to 50", "unit": "µg/mL"}]}, {"smiles": "CC(=O)Oc1cc2c(s1)CCN(C(C(=O)C1CC1)c1ccccc1F)C2", "note": "(centres unmarked) [Prasugrel, prasugrel]", "values": [{"measurement": "pKa", "setting": "[2]", "result": 5.48}, {"measurement": "aqueous solubility in water", "setting": "[1]", "result": 2.37, "unit": "µg/mL"}]}]}
